Measured values taken from patent publication US5276019A, “Inhibitors for replication of retroviruses and for the expression of oncogene products” (The United States of America as represented by the …, priority 1988, dated 1994).
“Also recorded” adds a separate entry of the source. Oligonucleotides are written 5' to 3', each unit as a sugar letter and its base; * is a phosphorothioate linkage, no mark a phosphodiester; rarer units and linkages stand in square brackets, end groups in braces. Plain capitals give the bases only. d = 2'-deoxy (DNA)

What was measured:
[1] = system: HTLV-IIIB virus (HIV) in ATH8 cells; experiment: HIV cytopathic effect inhibition in ATH8 cells; format: cell-based; conditions: for anti-HIV activity / protection against cytopathic effect: ATH8 cells
Procedure: Because it is possible that inter-assay variation may create an inappropriate comparison of antiviral activity among agents, experiments were performed simultaneously to make more precise comparisons.
After a number of days in culture, generally 7-10 days, either substantial cell death due to HIV infection (HIV cytopathic effect) or the protective effect of oligos against the cytopathicity of HIV was observed.

[2] = system: gamma-interferon; experiment: Induction of gamma-interferon in culture supernatant; format: cell-based
From the text: Another mechanism which should be considered is induction of interferon production such as that proposed for phophorothioate analogs of poly-r(I-C). […] Also, since there are no data to support the concept that phosphorothioate internucleotide linkages have a thiol character, and can thus form disulfides, the mechanism of action would likely be different from that proposed for antiviral polynucleotides having thiolated bases such as 5-mercapto-cytosine or -uracil.

[3] = Stability in human serum; format: in vitro ADME; conditions: 31P NMR
[4] = system: HL60 cells; experiment: Inhibition of HL60 cell proliferation (cell count); format: cell-based
[5] = system: de novo HIV DNA synthesis; experiment: Southern blot analysis of de novo HIV DNA synthesis in ATH8 cells; format: cell-based
From the text: Target cells (1×10^7 ATH8 cells) were pretreated with or without S-dC28 at various concentrations for sixteen hours, then treated with Polynrene, exposed to HIV (500 virus particles per cell), resuspended, and cultured in the presence or absence of S-dC28. On days 4 and 7 following the exposure to the virus, high molecular weight DNA was extracted, digested with Asp718 (a Kpn I isoschizomer from Boehringer-Mannheim, Indianapolis, Ind.), and subjected to Southern blot analysis hybridized with a labelled insert of molecular clone of the env region of HTLV-III (BH10) containing a 1.3 Kb Bgl II fragment.
On days 4 and 7 following the exposure to the virus, a substantial amount of viral DNA was detected by Southern blot analysis without antiviral agents.
On day 4, shown in lanes A-E, and day 7, shown in lanes F-J, following exposure to the virus, high molecular weight DNA was extracted. Lanes A and F contain DNA from ATH8 cells that were exposed to the virus and not protected by S-dC28. Lanes B and G, C and H, D and I, contain DNA from ATH8 cells pretreated and cultured with 1 micromole, 5 micromoles, and 7 micromoles S-dC28, respectively. Lanes E and J contain DNA from ATH8 cells treated with 50 micromoles 2',3'-dideoxyadenonsine, and lane K contains DNA from ATH8 cells that was not exposed to the virus.

[6] = system: T4 molecule in T4 cells (H9 cells); experiment: HIV binding to T4 molecule in H9 cells (radiolabelled virus)
Procedure: (§1) The possibility that the S-ODN analogs may interfere with HIV binding to target cells was tested.

[7] = system: P1 nuclease; experiment: Nuclease susceptibility, P1 nuclease; format: in vitro ADME
From the text: (§2) Several oligodeoxynucleotides were studied with regard to DNase sensitivity, cf. Table 5. These include cytidine homopolymers, ODN-4 (an anti-message 38-mer complementary to the 3' region of the art/trs region of HIV BH10 clone), and myc-1 (a 15-mer complementary to the initiation codon region of the C-myc oncogene). The DNases employed were predominantly endonuclease S1, the exo- and endonuclease P1, and snake venom (SV) phosphodiesterase. The concentration of S1 nuclease was ten-fold higher ([…]) for reactions of olifo-dC, since both the normal and PS analog were degraded extremely slowly be this enzyme. S1 and P1 nuclease digestion proceeded at 2-45 times more slowly for the S-ODNs than for the normal oligomers, with the […] being somewhat more readily digested than the 28-mer.

[8] = Solubility; format: physicochemical; conditions: acetate salts
From the text: Oligodeoxynucleotides with blocks of phosphorothioates at the 3' or 5' ends were synthesized by automatically changing the oxidation cycle at the required point. […] Introduction of a small amount of ammonia vapor, not aqueous ammonia, by a Pasteur pipette solubilized all the solids. The yield determined from absorbance at lambda max was about 30%.

[9] = system: T4, HLA-DR, T8, T3, or Tac antigen on ATH8 cells; experiment: Surface antigens of ATH8 cells by fluorescent-activated cytofluorometry; format: cell-based; conditions: i micromole, sixteen hours
Procedure: as §1

[10] = system: S1 nuclease; experiment: Nuclease susceptibility, S1 nuclease; format: in vitro ADME
From the text: as §2

[11] = system: p24 gag protein of HIV; experiment: HIV gag protein expression in chronically HIV-infected H9 cells (indirect immunofluorescence); format: cell-based; conditions: up to 25 micromoles, 120 hours
Procedure: The percentage of cells expressing p24 gag protein of HIV was determined by indirect immunofluorescence microscopy by using anti-HIV p24 murine monoclonal antibody.
Generally, it has been assumed that anti-sense sequences inhibit the expression of various genes by translation arrest, i.e. that they bind to mRNA and block its translation. In order to test this possibility, gag protein synthesis was analyzed in chronically HIV-infected and -producing H9 cells by indirect immunofluorescent assay under a microscope. […] Alternatively, the level of any translation arrest could have been below the threshold of detection by indirect immunofluorescent assay under a microscope. […] Therefore, one mechanism for the antiviral effect could depend on blocking viral replication perhaps prior to, or at the stage of, pro-viral DNA synthesis.

[12] = Stability in in vitro test media followed by 31P NMR; format: in vitro ADME
From the text: The phosphorothioate oligodeoxynucleotides of the present invention have suitable chemical characteristics, namely, the ability to hybridize with complementary DNA/mRNA under physiological conditions, and better solubility properties relative to methylphosphonates. Moreover, the thioesters are as soluble in biological media as the parent compounds.
Thus, it is believed that it is mainly the relative resistance of the phosphorothioate analogs to nucleases that preserves them relative to n-ODNs, and allows them to reach and remain at their target site. This was supported in relation to the media used in the in vitro test system by following the 31P NMR spectra of the n-ODN-1 and S-ODN-1 compounds as a function of time.

[13] = system: HL60 cells; experiment: DNA synthesis in HL60 cells (3H-thymidine incorporation); format: cell-based; conditions: FIG. 4, 50 uM, day 1
Procedure: To obtain the results shown in FIG. 4, nonsense or antisense S-ODNs were added at a final concentration of 50 uM on day 0 to cells seeded at 3×10^5/ml. DNA synthesis was determined on day 1 by incubating cells with 1 uCi 3H-thymidine for 4 hours, after which time 10% trichloroacetic acid was added and acid precipitatable radioactivity was trapped on Whatman glass fiber filters. The filters were subjected to liquid scintillation counting to determine levels of radioactivity.

(dC)n n = 14 [S-dC14]
protection against the virus ([1]; 5 micromoles): only a moderate effect | anti-HIV activity / protection against cytopathic effect [1]: the most potent antiviral compound among those tested | anti-HIV activity / protection against cytopathic effect ([1]; listed as 14-mer oligo-dC): substantial protection against HIV cytopathic effect | induction of gamma-interferon [2]: No induction of gamma-interferon

d-(Gs Gs As Gs As Cs As Gs Cs Gs As Cs Gs A) [S-ODN-2]
anti-HIV activity / protection against cytopathic effect [1]: protected against HIV

dAACGTTGAGGGGCAT [O-myc-1, reference compound]
half-life in 50% human serum [3]: two to three

nonsense S-ODN: 5'-CTG AAG TGG CAT GAG; non-sense, same composition as anti-sense but in random sequence (dC*dT*dG*dA*dA*dG*dT*dG*dG*dC*dA*dT*dG*dA*dG) [reference compound]
inhibition of cell proliferation (cell count) ([4]; HL60 cells): not all nonsense S-ODN concentrations affected cell proliferation | inhibition of cell proliferation (cell count) ([4]; HL60 cells, listed as non-sense sequence): none of the controls used, namely, the non-sense sequence, has shown similar activity

Nc1ccn([C@H]2CC[C@@H](CO)O2)c(=O)n1 [2',3'-dideoxycytidine, reference compound]
protection against the virus ([1]; 0.5 micromoles): complete antiviral activity

Nc1ncnc2c1ncn2[C@H]1CC[C@@H](CO)O1 [2',3'-dideoxyadenosine, reference compound]
2.7 Kb env-containing internal KPN I fragment of virus genome ([5]; 50 micromoles (lanes E, J), days 4 and 7): detected only in lanes A and F | minimal effective concentration ([5]; Human immunodeficiency virus 1, ATH-8, Southern blot, days 4 and 7, read-out: lowest concentration significantly inhibiting de novo synthesis of viral DNA): 1 µM

(dC)n n = 28 [S-dC28]
2.7 Kb env-containing internal KPN I fragment of virus genome ([5]; 1, 5 and 7 micromoles S-dC28 (lanes B-D, G-I), days 4 and 7): detected only in lanes A and F | lowest concentration with complete inhibition of de novo synthesis of HIV DNA ([5]; Southern blot): 1 µmol | lowest concentration significantly inhibiting de novo synthesis of viral DNA ([5]; Southern blot, days 4 and 7): 1 µM | protection against the virus ([1]; 0.5 micromoles): complete protection against the virus; also recorded: complete antiviral activity | inhibition of viral replication and protection of ATH8 cells ([1]; 3 micromoles): 100% | anti-HIV activity / protection against cytopathic effect [1]: the most consistent and durable antiviral effects; also recorded: one of the most potent analogs tested | therapeutic index (ratio of cytotoxic to effective concentration) ([1]; in vitro): comparable in vitro index to those of dideoxycytidine and dideoxyadenosine | inhibition of HIV binding to T4 molecule [6]: No inhibition | Ratio t1/2 PSoligo/t1/2 POoligo [7]: 15 | solubility in 1M NaCl [8]: extremely insoluble in 1M NaCl | changes in T4, HLA-DR, T8, T3, or Tac antigen [9]: no detectable changes | Ratio t1/2 PSoligo/t1/2 POoligo ([10]; oligo-dC, ten-fold higher S1 concentration): 2 | gag protein positivity [11]: failed to reduce gag protein positivity; also recorded: did not inhibit gag protein positivity

d-(Ts Cs Gs Ts Cs Gs Cs Ts Gs Ts Cs Ts Cs C) [S-ODN-1]
anti-HIV activity / protection against cytopathic effect [1]: substantial activity against HIV; also recorded: protected against HIV | phosphorothioate bonds intact ([12]; 10 days): still intact after 10 days | degradation ([12]; a week): no significant degradation even after a week | decomposition based on the total signal intensity ([12]; after 10 days): less than 5%

dAACGTTGAGGGGCAT [S-myc-1]
Ratio t1/2 PSoligo/t1/2 POoligo [7]: 4 | effect on cell proliferation ([4]; 0.1 micro M, FIG. 3): effective | concentration relative to that required for the normal oligomer ([4]; HL60 cells): less than 1% | inhibition of cell proliferation (cell count) ([4]; HL60 cells, listed as anti-sense sequence): significant inhibition of cell proliferation | inhibition of cell proliferation (cell count) ([4]; HL60 cells, listed as phosphorothioate oligodeoxynucleotide analogs of the same anti-sense sequence): inhibit proliferation of HL60 cells | Ratio t1/2 PSoligo/t1/2 POoligo ([10]; ODN-4 and myc-1): 9 | inhibition of cell proliferation (3H-thymidine incorporation) [13]: significant inhibition of cell proliferation

B1: recombinant gamma-interferon: recombinant gamma-interferon (protein, UniProt P01579 24-161, looked up)
Interferon gamma: QDPYVKEAENLKKYFNAGHSDVADNGTLFLGILKNWKEESDRKIMQSQIVSFYFKLFKNFKDDQSIQKSVETIKEDMNVKFFNSNKKKRDDFEKLTNYSVTDLNVQRKAIHELIQVMAELSPAAKTGKRKRSQMLFRG
inhibition of cytopathic effect ([1]; 1000 units added directly to cultures): did not inhibit the cytopathic effect
